Test [1] deals with TLR4 ligand LPS induced TNF. Description: LPS induced TNF production in primary human macrophages (ELISA). To be noted: 30 minutes preincubation. Format: cell-based. How it is done:
(§1) Macrophages or RA synovial membrane cell cultures were stimulated with 10 ng/ml chloroform-extracted LPS, 10 ng/ml Pam3, 10 ng/ml Flagellin, 10 ng/ml Malp-2, 20 μg/ml poly IC, 2 μM CpG (human/mouse) or 1 μg/ml R-848 in complete media for 6 h. Supernatants from RA cultures were harvested after 24 hours. All reagents other than LPS were free from LPS contamination as assessed using the limulus amebocyte lysate (LAL) assay from Cambrex (USA).
(§2) Sandwich ELISAs were employed to measure TNF, (Pharmingen, UK). IP-10 (R&D, USA) and IL-1β (Bioscource. USA). Absorbance was read on a spectrophotometric ELISA plate reader (Labsystems Multiscan Biochromic) and analyzed using Ascent software V2.6 (Thermo Labsystems, Cambridge, United Kingdom). All results are expressed as the mean cytokine concentration±SD obtained from triplicate cultures per condition.
(§3) RA synovial membrane cells were isolated from patients undergoing joint replacement surgery as previously described (Foxwell et al., Proc. Natl. Acad. Sci. USA 95, 8211-8215, 1998). All patients gave written informed consent and the study was approved by the local ethics committee. Immediately after isolation, cells were used for mRNA analysis, stained by FACS or cultured at 1×10^5 cells/well in 96-well tissue culture plates (Falcon, UK) in RPMI 1640 containing 10% (v/v) FBS and 100 U/ml penicillin/streptomycin. Primary human synovial fibroblasts were cultured as described previously (Butler et al. Eur. Cytokine Netw. 5:441-8, 1994). Peripheral blood monocytes were isolated and cultured as previously described (Foxwell et al. Proc. Natl. Acad. Sci. USA 95, 8211-8215, 1998). Macrophages were derived from monocytes after differentiation for 4 days with 100 ng/ml M-CSF (PeproTech, UK). The mouse macrophage cell line RAW 264.7 was maintained in Dulbecco's modified Eagle's medium supplemented with 10% fetal bovine serum.
Primary human macrophages, murine RAW 264.7 cells and synovial fibroblasts were incubated with 30 μg/ml mianserine hydrochloride for 30 minutes and then stimulated for 6 hours with TLR ligands (R-848, Pam3, LPS, flagellin, malp-2, poly IC or CpG).

Test [2] relates to TLR3 ligand poly IC induced IP-10. Description: Poly IC induced IP-10 production in human macrophages (ELISA). Format: cell-based. As to the method:
as §1, §2, §3
Primary human macrophages were incubated with 5 μg/ml of GBR12909, 5 μg/ml of clotrimazole, 5 μg/ml of Propidium iodide (PI), 30 μg/ml mianserine hydrochloride and 30 μg/ml promazine hydrochloride for 30 minutes and then stimulated for 6 hours with the TLR4 ligand LPS (FIG. 7A), with R848 a TLR7/8 ligand (FIG. 7, Graph B), or with poly IC a TLR3 ligand (FIG. 7C). Supernatants were collected and measured for TNF or IP-10.
Background: In an ELISA, binding on a coated surface is turned into a signal by an enzyme label.

The subject of test [3] is RA synovial membrane cultures. Description: Spontaneous cytokine release from RA synovial membrane cultures (ELISA). Format: cell-based, human.
Test [4] has as its system TLR7/8 ligand R-848 induced TNF. Description: R-848 induced TNF production in primary human macrophages (ELISA). As to conditions: 1 μg/ml R-848 for 6 hours.
In test [5] the test system is rheumatoid synovial membrane cultures. Description: TNF production in rheumatoid synovial membrane cultures stimulated with TLR ligands (ELISA). Format: cell-based, human. As to the method:
as §1, §2, §3
To check if these TLRs were functional in synovial membrane cultures, cells were stimulated with the appropriate TLR ligands at the time of seeding the cells (FIG. 5, Graph C). […]

Test [6] relates to RA synovial membrane cultures. Kind of test: Spontaneous cytokine release from RA synovial membrane cultures (ELISA). Format: cell-based, human. As to conditions: 10 μg/ml, 20 μg/ml and 30 μg/ml. As to the method: Macrophages or RA synovial membrane cell cultures were stimulated with 10 ng/ml chloroform-extracted LPS, 10 ng/ml Pam3, 10 ng/ml Flagellin, 10 ng/ml Malp-2, 20 μg/ml poly IC, 2 μM CpG (human/mouse) or 1 μg/ml R-848 in complete media for 6 h. Supernatants from RA cultures were harvested after 24 hours.
as §2, §3
Rheumatoid arthritis synovial membrane cells were cultured for 24 hours in the presence of media alone or media containing 30 μg/ml mianserine hydrochloride. Supernatants were harvested and levels of cytokines (A) TNF (n=16) were measured by ELISA. […] A students paired t-test was used to analyse the data.

The mark [7] stands for this setting: 5 μg/ml, 30 minutes preincubation.
Where [8] appears, read: 30 μg/ml, 10 ng/ml LPS for 6 hours.
[9] abbreviates: dose dependant, best inhibition at 100 μM, 24 hours, n=4.

Entries after “also recorded” stand apart in the source; their conditions may differ. Structures can show the parent of a compound that is named as a salt.

For `CC[N+](C)(CC)CCC[n+]1c(-c2ccccc2)c2cc(N)ccc2c2ccc(N)cc21.[I-].[I-]` [Propidium iodide], the “inhibition of LPS induced TNF production” value in test [1] (5 μg/ml, LPS for 6 hours) was “None of the drugs tested were able to inhibit”. In test [2] (5 μg/ml, poly IC for 6 hours), the “inhibition of Poly IC induced IP-10 production” value is on record as “able to inhibit”. For the same molecule, in test [3] (5 μg/ml, 24 hours), the “inhibition of spontaneous TNF production” value is “did not lead to a significant decrease”. Further, the “inhibition of R-848 induced TNF production” value in test [4] (setting [7]) is “only the serotonin receptor antagonists (mianserine hydrochloride and promazine hydrochloride) were able to suppress”.

Turning to `CCOCc1nc2c(N)nc3ccccc3c2n1CC(C)(C)O` [R-848, resiquimod], the “TNF production increased on stimulation” value in test [5] (1 μg/ml, TLR7/8 ligand, P<0.0001, n=11) was 515%±76.

Regarding `Clc1ccccc1C(c1ccccc1)(c1ccccc1)n1ccnc1` [clotrimazole, Clotrimazole], the “inhibition of LPS induced TNF production” value in test [1] (5 μg/ml, LPS for 6 hours) was “None of the drugs tested were able to inhibit”. The “inhibition of Poly IC induced IP-10 production” value in test [2] (5 μg/ml, poly IC for 6 hours) is recorded as “able to inhibit”. Besides, the “inhibition of spontaneous TNF production” value in test [3] (5 μg/ml, 24 hours) is listed as “did not lead to a significant decrease”. For the same molecule, the “inhibition of R-848 induced TNF production” value in test [4] (setting [7]) is “only the serotonin receptor antagonists (mianserine hydrochloride and promazine hydrochloride) were able to suppress”.

Take `CC(C)Cn1cnc2c(N)nc3ccccc3c21` [imiquimod]: the “stimulation of cytokine release over spontaneous levels” value in test [5] (1 μg/ml, TLR7 ligand) is “unable to stimulate further release of cytokines”.

`CN1C[C@H](CNC(=O)OCc2ccccc2)C[C@@H]2c3cccc4c3c(cn4C)C[C@H]21` [metergoline]: the “inhibition of spontaneous TNF production” value in test [3] (10 μg/ml, 24 hours) is given as “able to inhibit”. For the same molecule, the “inhibition of R-848 induced TNF production” value in test [4] (10 μg/ml, 30 minutes preincubation) is “able to inhibit”.

Regarding `CSc1ccc2c(c1)C(N1CCN(C)CC1)Cc1ccccc1S2` (stereo not shown) [methiothepin], the “inhibition of spontaneous TNF production” value in test [3] (5 μg/ml, 24 hours) was “able to inhibit”. Also, the “inhibition of R-848 induced TNF production” value in test [4] (setting [7]) is listed as “able to inhibit”.

As for `Cc1nccn1CC1CCc2c(c3ccccc3n2C)C1=O` (stereo not shown) [ondansetron], the “inhibition of LPS induced TNF production” value in test [1] (setting [8]) is listed as “not”. Moreover, in test [3] (20 μg/ml, 24 hours), the “inhibition of spontaneous TNF production” value was “able to inhibit; also recorded: significant inhibition”. Moreover, the “inhibition of R-848 induced TNF production” value in test [4] (30 μg/ml, 30 minutes preincubation) is “significantly inhibits”; in test [4] (30 μg/ml, 30 minutes preincubation, listed as Ondansetron), “able to inhibit”. Besides, in test [4] (5, 10 or 20 μg/ml, 30 minutes preincubation), the “inhibition of R-848 induced TNF production, dose dependence” value is recorded as “dose dependant inhibition”.

Turning to `CN(C)CCCN1c2ccccc2Sc2ccccc21` [promazine hydrochloride], in test [6], the “inhibition of TNF, dose dependence” value was “dose dependently inhibited”. Moreover, the “inhibition of LPS induced TNF production” value in test [1] (setting [8]) is “None of the drugs tested were able to inhibit”. For the same molecule, in test [2] (30 μg/ml, 20 μg/ml poly IC for 6 hours, hydrochloride), the “inhibition of Poly IC induced IP-10 production” value is given as “inhibits TLR3 induced signalling; also recorded: able to inhibit”. For the same molecule, the “inhibition of R-848 induced TNF production” value in test [4] (30 μg/ml, 30 minutes preincubation, hydrochloride) was “able to suppress”; in test [4] (30 μg/ml, 30 minutes preincubation, listed as Promazine hydrochloride, hydrochloride) it was “decreased TNF production”.

Consider `Cc1nc2sccn2c(=O)c1CCN1CCC(=C(c2ccc(F)cc2)c2ccc(F)cc2)CC1` [ritanserin], for which the “inhibition of spontaneous TNF production” value in test [3] (5 μg/ml, 24 hours) is on record as “able to inhibit”. For the same molecule, the “inhibition of R-848 induced TNF production” value in test [4] (setting [7]) is “able to inhibit”.

Consider `NCCc1c[nH]c2ccc(O)cc12` [serotonin (5-HT), 5-hydroxytryptamine], for which the “inhibition of R-848 induced TNF production (TLR8 signaling)” value in test [4] (10 or 100 μM, 30 minute preincubation) is “not inhibited”.

For the molecule Chloroquine diphosphate salt, in test [3] (setting [9]), the “inhibition of spontaneous IL-1 release” value is “inhibited” and the “inhibition of spontaneous TNF release” value is “inhibited”.

As for Poly IC, the “TNF production increased on stimulation” value in test [5] (20 μg/ml, TLR3 ligand, P=0.0002, n=12) is given as 334%±60.

Consider ketanserine tartrate, for which the “inhibition of TNF, dose dependence” value in test [3] (10 μM, 100 μM) is listed as “dose dependently inhibited”.

The record behind these values is patent US20100273750A1, “SEROTONIN RECEPTOR ANTAGONISTS FOR TREATING ARTHRITIS” (IMPERIAL INNOVATIONS LIMITED, priority 2007, published 2010).
